Starred links: 1 amine or outer side, 2 acyl side, 3 side chain; linkers in the order of their positions; H or OH if unused. Positions of bridges follow the written chain, without caps; N, C: chain ends. Non-standard residues stand in square brackets, D forms with d. Residues, ends and D or L forms follow the SMILES beside them. *: point of attachment. hPhe(3,5-F2-4-CF3) = N[C@@H](CCc1cc(F)c(C(F)(F)F)c(F)c1)C(=O)O; hPhe(3-Cl-4-CF3) = N[C@@H](CCc1ccc(C(F)(F)F)c(Cl)c1)C(=O)O; Thiomorpholino(1,1-dioxo) = O=S1(=O)CCN(*)CC1; 3Oxa8azabicyclo(3.2.1)octane = C1CC2COCC1N2*; NEtPhe(4-Me) = CCN[C@@H](Cc1ccc(C)cc1)C(=O)O; NMePhe(4-Cl) = CN[C@@H](Cc1ccc(Cl)cc1)C(=O)O; X51 = O=C([C@H](Cc1cc(F)cc(I)c1)N[*:1])[*:2]; X55 = C[C@@](Cc1cccc(I)c1)(N[*:1])C(=O)[*:2]; X77 = O=C([C@H](Cc1cc(Br)ccc1Cl)N[*:1])[*:2]; NMePhe(4-F) = CN[C@@H](Cc1ccc(F)cc1)C(=O)O; X20 = O=C([C@H](Cc1ccc(Br)s1)N[*:1])[*:2]; NMeGly(cPent) = CN[C@H](C(=O)O)C1CCCC1; Phe(3-I) = N[C@@H](Cc1cccc(I)c1)C(=O)O; Pro(4,4-F2) = O=C(O)[C@@H]1CC(F)(F)CN1; NMeY = CN[C@@H](Cc1ccc(O)cc1)C(=O)O; NMeCha = CN[C@@H](CC1CCCCC1)C(=O)O; NMeChg = CN[C@H](C(=O)O)C1CCCCC1; NMeD = CN[C@@H](CC(=O)O)C(=O)O; NMeL = CN[C@@H](CC(C)C)C(=O)O; NMeNva = CCC[C@H](NC)C(=O)O; NMeV = CN[C@H](C(=O)O)C(C)C; NMeAbu = CC[C@H](NC)C(=O)O; NMeA = CN[C@@H](C)C(=O)O; NMeAib = CNC(C)(C)C(=O)O; Nle = CCCC[C@H](N)C(=O)O; Piperidide = C1CCN(*)CC1; Pra = C#CC[C@H](N)C(=O)O; Pyrrolidide = C1CCN(*)C1; Ac5c = NC1(C(=O)O)CCCC1; Aze = O=C(O)[C@@H]1CCN1; CF3 = FC(F)(F)*; Sar = CNCC(=O)O
Biological target: T1, Kras and SOS1 (biotin-tagged human Kras loaded with GDP, His-tagged human SOS1) (Homo sapiens, UniProt P01116, G12D)
T1 construct: made in house; host or cells: E. coli (stated for Kras only)
T1 sequence (P01116 1-188 isoform P01116-2 G12D): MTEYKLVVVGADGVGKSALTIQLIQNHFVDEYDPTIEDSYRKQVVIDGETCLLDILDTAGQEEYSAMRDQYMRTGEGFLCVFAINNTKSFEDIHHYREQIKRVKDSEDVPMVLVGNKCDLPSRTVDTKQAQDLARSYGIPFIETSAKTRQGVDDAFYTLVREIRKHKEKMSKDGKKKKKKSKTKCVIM
Assay: Protein-protein interaction inhibition between Kras and SOS1 (KrasGl2D-SOS PPI) using AlphaScreen
Assay type: binding
Settings: AlphaScreen; biotin-tagged human Kras loaded with GDP, His-tagged human SOS1; read-out: KRAS G12D-SOS PPI IC50
In short: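 Kras was produced in E. coli, purified, then loaded with GDP. It was paired via streptavidin acceptor beads with His-SOS1 held on nickel donor beads, and proximity signal at 520-620 nm was read after 680 nm illumination.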

Q: How did the IC50 turn out when CCCC[C@@H]1NC(=O)[C@](C)(Cc2cccc(I)c2)NC(=O)CN(C)C(=O)[C@H](Cc2ccc(Cl)cc2)N(C)C(=O)CN(C)C(=O)CN(C)C(=O)[C@H]([C@@H](C)CC)NC(=O)[C@H](CC(C)C)N(C)C(=O)C[C@@H](C(=O)N2CCCCC2)N(C)C(=O)[C@H](CC(C)C)NC(=O)C(C)(C)N(C)C1=O [Compound 1202] ([NMeL]I[Sar][Sar][NMePhe(4-Cl)][Sar][X55][Nle][NMeAib]L[NMeD]-Piperidide; lactam N-11) was run?
A: 240 nM

Q: Which IC50 does the source give for CCCC[C@@H]1NC(=O)[C@H](Cc2cc(Br)ccc2Cl)NC(=O)CN(C)C(=O)[C@H](Cc2ccc(OC)cc2)N(C)C(=O)[C@@H]2CCN2C(=O)[C@H](C)N(C)C(=O)[C@H]([C@@H](C)CC)NC(=O)[C@H](CC)N(C)C(=O)C[C@@H](C(=O)N2CCCCC2)N(C)C(=O)[C@H](CC(C)C)NC(=O)C(C)(C)N(C)C1=O [Compound 1212] ([NMeAbu]I[NMeA][Aze][NMeY](Me)[Sar][X77][Nle][NMeAib]L[NMeD]-Piperidide; lactam N-11) here?
A: 120 nM

Q: How did the IC50 turn out when CC[C@H](C)[C@@H]1NC(=O)[C@H](CC(C)C)N(C)C(=O)C[C@@H](C(=O)N2C3CCC2COC3)N(C)C(=O)[C@H](C2CCCC2)N(C)C(=O)C2(CCCC2)NC(=O)[C@@H]2CCCN2C(=O)[C@H](CCc2cc(F)c(C(F)(F)F)c(F)c2)NC(=O)CN(C)C(=O)[C@H](Cc2ccc(C)cc2)N(CC)C(=O)[C@@H]2CCN2C(=O)[C@H](C)N(C)C1=O [Compound 1215] ([NMeL]I[NMeA][Aze][NEtPhe(4-Me)][Sar][hPhe(3,5-F2-4-CF3)]P[Ac5c][NMeGly(cPent)][NMeD]-{3Oxa8azabicyclo(3.2.1)octane}; lactam N-11) was run?
A: 1.8 nM

Q: With CCCC[C@@H]1NC(=O)[C@H](Cc2ccc(Br)s2)NC(=O)CN(C)C(=O)[C@H](Cc2ccc(Cl)cc2)N(C)C(=O)CN(C)C(=O)CN(C)C(=O)[C@H]([C@@H](C)CC)NC(=O)[C@H](CC(C)C)N(C)C(=O)C[C@@H](C(=O)N2CCCCC2)N(C)C(=O)[C@H](CC(C)C)NC(=O)C(C)(C)N(C)C1=O [Compound 1216] ([NMeL]I[Sar][Sar][NMePhe(4-Cl)][Sar][X20][Nle][NMeAib]L[NMeD]-Piperidide; lactam N-11) as the compound, how does the IC50 read?
A: 120 nM

Q: With C#CC[C@@H]1NC(=O)[C@H](Cc2cccc(I)c2)NC(=O)CN(C)C(=O)[C@H](Cc2ccc(OC(F)(F)F)cc2)N(C)C(=O)CN(C)C(=O)CN(C)C(=O)[C@H]([C@@H](C)CC)NC(=O)[C@H](CC(C)C)N(C)C(=O)C[C@@H](C(=O)N2CCCCC2)N(C)C(=O)[C@H](CC(C)C)NC(=O)C(C)(C)N(C)C1=O [Compound 1219] ([NMeL]I[Sar][Sar][NMeY](CF3)[Sar][Phe(3-I)][Pra][NMeAib]L[NMeD]-Piperidide; lactam N-11) as the compound, how does the IC50 read?
A: 16 nM

Q: CCCC[C@@H]1NC(=O)[C@H](Cc2cc(F)cc(I)c2)NC(=O)CN(C)C(=O)[C@H](Cc2ccc(OC)cc2)N(C)C(=O)[C@@H]2CCN2C(=O)[C@H](C)N(C)C(=O)[C@H]([C@@H](C)CC)NC(=O)[C@H](CC)N(C)C(=O)C[C@@H](C(=O)N2CCCCC2)N(C)C(=O)[C@H](CC(C)C)NC(=O)C(C)(C)N(C)C1=O [Compound 1226] ([NMeAbu]I[NMeA][Aze][NMeY](Me)[Sar][X51][Nle][NMeAib]L[NMeD]-Piperidide; lactam N-11) was tested. Which IC50 did it give?
A: 15 nM

Q: C#CC[C@@H]1NC(=O)[C@H](Cc2cccc(I)c2)NC(=O)CN(C)C(=O)[C@H](Cc2ccc(F)cc2)N(C)C(=O)[C@@H]2CCN2C(=O)[C@H](C)N(C)C(=O)[C@H]([C@@H](C)CC)NC(=O)[C@H](CC(C)C)N(C)C(=O)C[C@@H](C(=O)N2CCCCC2)N(C)C(=O)[C@H](CC(C)C)NC(=O)C(C)(C)N(C)C1=O [Compound 1230] ([NMeL]I[NMeA][Aze][NMePhe(4-F)][Sar][Phe(3-I)][Pra][NMeAib]L[NMeD]-Piperidide; lactam N-11) was tested. Which IC50 did it give?
A: 98 nM

Q: Which IC50 does the source give for CCC[C@H]1C(=O)N[C@@H]([C@@H](C)CC)C(=O)N(C)CC(=O)N(C)CC(=O)N(C)[C@@H](CC2CCCCC2)C(=O)N(C)CC(=O)N[C@@H](CCc2ccc(C(F)(F)F)c(Cl)c2)C(=O)N2CC(F)(F)C[C@H]2C(=O)NC2(CCCC2)C(=O)N(C)[C@@H](C2CCCCC2)C(=O)N(C)[C@H](C(=O)N2CCCC2)CC(=O)N1C [Compound 1232] ([NMeNva]I[Sar][Sar][NMeCha][Sar][hPhe(3-Cl-4-CF3)][Pro(4,4-F2)][Ac5c][NMeChg][NMeD]-Pyrrolidide; lactam N-11) here?
A: 0.47 nM

Q: Which IC50 does the source give for CC[C@H](C)[C@@H]1NC(=O)[C@H](CC(C)C)N(C)C(=O)C[C@@H](C(=O)N2CCS(=O)(=O)CC2)N(C)C(=O)[C@H](C(C)C)N(C)C(=O)C2(CCCC2)NC(=O)[C@@H]2CCCN2C(=O)[C@H](CCc2ccc(C(F)(F)F)c(Cl)c2)NC(=O)CN(C)C(=O)[C@H](CC2CCCCC2)N(C)C(=O)[C@@H]2CCN2C(=O)[C@H](C)N(C)C1=O [Compound 1238] ([NMeL]I[NMeA][Aze][NMeCha][Sar][hPhe(3-Cl-4-CF3)]P[Ac5c][NMeV][NMeD]-{Thiomorpholino(1,1-dioxo)}; lactam N-11) here?
A: 9.9 nM

Reference: US12371454B2, “Cyclic peptide compound having Kras inhibitory action” (priority 2019, dated 2025)
